{"source": "patent US4338451A", "about": "“5-Hydroxymethyl oxazolidinones” (Delalande S.A., priority 1977, dated 1982)", "key": {"[1]": {"tested_on": "ptosis observed one hour after an intravenous injection (2 mg/kg) of reserpine", "assay": "Test B: antagonism of the ptosis caused by reserpine in mice", "type": "in vivo", "details": "Mus musculus, po, 1 h, p.o., reserpine 2 mg/kg intravenous, read-out: Test B ED 50", "experimental": "Antagonism with respect to the ptosis observed one hour after an intravenous injection (2 mg/kg) of reserpine given to mice, following the protocol described by C."}, "[2]": {"tested_on": "generalized trembling caused by an interperitoneal injection (200 mg/kg) of dl-5-hydroxytryptophane", "assay": "Test A: potentiation in mice of generalized trembling caused by dl-5-hydroxytryptophane", "type": "in vivo", "details": "Mus musculus, po, dl-5-hydroxytryptophane 200 mg/kg intraperitoneal, read-out: Test A ED 50", "experimental": "Potentiation in mice of generalized trembling caused by an interperitoneal injection (200 mg/kg) of dl-5-hydroxytryptophane, following the protocol described by C. GOURET and G. RAYNAUD in J. Pharmacol. (Paris), (1974) 5, 231."}, "Acute toxicity in mice": {"assay": "Acute toxicity in mice", "details": "mouse, in vivo, po, 1000 mg/kg"}, "[3]": {"tested_on": "pontogeniculo-occipital points (P.G.O.) caused by an intravenous injection (0.5 mg/kg) of reserpine", "assay": "Test C: reduction in the density of pontogeniculo-occipital points (P.G.O.) caused by reserpine in cats", "type": "in vivo", "details": "Felis catus, ip, reserpine 0.5 mg/kg intravenous, read-out: Test C ED 50", "experimental": "Reduction in the density of pontogeniculo-occipital points (P.G.O.) caused by an intravenous injection (0.5 mg/kg) of reserpine given to cats, following the protocol described by A. COSTON and C. GOURET in J. Pharmacol. (Paris) (1976), 7, 409."}}}
{"smiles": "N#CCCOc1ccc(N2CC(CO)OC2=O)cc1", "note": "(stereo not shown) [770 131, 3-(2-p-cyanoethoxyphenyl) 5-hydroxymethyl 2-oxazolidinone]", "values": [{"measurement": "ED50", "setting": "[1]", "value": 3, "unit": "mg/kg"}, {"measurement": "ED50", "setting": "[2]", "value": 2.5, "unit": "mg/kg"}, {"measurement": "mortality", "setting": "Acute toxicity in mice", "value": 0, "unit": "%"}, {"measurement": "ED50", "setting": "[3]", "value": 5.5, "unit": "mg/kg"}]}
